Values joined by “and” are separate entries in the source; they are usually repeats but may differ in a detail not shown here. Identical values can stand only once. Like-named read-outs stand apart in the source and are kept apart here.
How the values were obtained:
[1] = target: SARS-CoV-2 NSP3 macrodomain (Mac1) (Severe acute respiratory syndrome coronavirus 2, UniProt P0DTD1); experiment: biochemical; format: binding; details: for SARS CoV-2 macrodomain HTRF assay: Hillslope: dose-response fit
[2] = target: SARS-CoV-2 NSP3 macrodomain (Mac1), P43 crystal form (Severe acute respiratory syndrome coronavirus 2, UniProt P0DTD1); format: binding; details: for 1-BDC: PanDDA background density correction; for Total number of conformations: ligand conformations modeled in Mac1 crystal structure; for X-ray crystallography: Binding site: site where the ligand is bound in the X-ray crystal structure
[3] = Single dose, 200 μM, mean of three technical replicates, read-out: Average % competition
[4] = preliminary screen, compound at 200 μM, mean of 3-4 technical replicates, read-out: % competition in HTRF assay
[5] = TRUE = crystal structure with ligand determined
[6] = crystal soak concentration 10 mM, event 1
[7] = crystal soak concentration 10 mM, P43 crystals
[8] = crystal soak concentration 10 mM
[9] = occupancy estimate from PanDDA 1-BDC
[10] = site of Mac1 where ligand bound in crystal structure
[11] = Dose-response, SARS CoV-2 macrodomain HTRF assay
[12] = Single dose, 200 μM, mean of three technical replicates
[13] = crystal soak concentration 3 mM, P43 crystals
[14] = crystal soak concentration 3 mM
[15] = crystal soak concentration 20 mM
[16] = crystal soak concentration 20 mM, P43 crystals
[17] = Single dose, concentration 200 μM, read-out: SARS CoV-2 macrodomain HTRF assay: Average % competition
[18] = crystal soak, soak concentration 10 mM
[19] = crystal soak, soak concentration 10 mM, TRUE = ligand hit
[20] = SARS CoV-2 macrodomain HTRF assay, dose-response, read-out: IC50
[21] = X-ray crystal structure determined (TRUE)
[22] = site of ligand in X-ray crystal structure
[23] = SARS CoV-2 macrodomain HTRF assay, dose-response
[24] = Single dose, concentration 200 μM, read-out: Average % competition
[25] = crystal soak 10 mM, P43 crystals
[26] = preliminary screen, compound at 200 μM, mean of 3-4 technical replicates

Row | Structure (SMILES) | inhibition at 200 µM [1, 4] | 1-BDC [2] | Total number of conformations [2] | 2*(1-BDC) (%) [2, 9] | Hill slope ([1]; HTRF dose-response fit, Mac1) | X-ray crystal structure [2, 21] | Binding site [2, 22] | Pandda run, overall: Hit [2, 25] | Pandda run, overall: Modeled [2, 25] | PanDDA run, DMSO background map: 1-BDC ([2]; crystal soak 10 mM) | PanDDA run, DMSO background map: Hit ([2]; crystal soak 10 mM) | other results
1 | Cc1sc2ncnc(Sc3ccccc3C(=O)O)c2c1C [AVI-317] | 24% | 0.15 | 2 | 30% | – | – | – | – | – | – | – | inhibition at 200 µM [1, 3]: 24%; PanDDA run, DMSO background map: 1-BDC ([2]; event 1): 0.18; X-ray crystal structure [2, 5]: TRUE; PanDDA run, DMSO background map: 1-BDC [2, 6]: 0.17 and 0.15; Pandda run, overall: Hit [2, 7]: TRUE; Pandda run, overall: Modeled [2, 7]: TRUE; Pandda run, overall: Modeling comment [2, 7]: Duplicate, not modeled; PanDDA run, DMSO background map: Hit [2, 8]: TRUE; PanDDA run, DMSO background map: Modeled [2, 8]: TRUE; Binding site [2, 10]: Adenosine
2 | CC(CNC(=O)c1ccc2c(c1)CCC(=O)N2)C(=O)O (centres unmarked) [AVI-328] | 50% | 0.11 | 2 | 22% | 1.3 | – | – | – | – | – | – | Hill slope [1, 11]: 1.3; inhibition at 200 µM [1, 3]: 50%; PanDDA run, DMSO background map: 1-BDC ([2]; event 1): 0.25; X-ray crystal structure [2, 5]: TRUE; PanDDA run, DMSO background map: 1-BDC [2, 6]: 0.11 and 0.1; Pandda run, overall: Hit [2, 7]: TRUE; Pandda run, overall: Modeled [2, 7]: TRUE; Pandda run, overall: Modeling comment [2, 7]: Duplicate, not modeled; PanDDA run, DMSO background map: Hit [2, 8]: TRUE; PanDDA run, DMSO background map: Modeled [2, 8]: TRUE; Binding site [2, 10]: Adenosine
3 | Cc1ccc2c(c1)CC[C@@H](C(=O)Nc1nnc3n1CCCC3)O2 [AVI-329] | – | 0.07 | 1 | 14% | – | – | – | – | – | – | – | Average % competition [1, 12]: 9%; PanDDA run, DMSO background map: 1-BDC ([2]; event 1): 0.17; X-ray crystal structure [2, 5]: TRUE; Pandda run, overall: Hit [2, 13]: TRUE; Pandda run, overall: Modeled [2, 13]: TRUE; Pandda run, overall: Modeling comment [2, 13]: Duplicate, not modeled; PanDDA run, DMSO background map: Hit [2, 14]: TRUE; PanDDA run, DMSO background map: Modeled [2, 14]: TRUE; PanDDA run, DMSO background map: 1-BDC ([2]; crystal soak concentration 3 mM, event 1): 0.08 and 0.07; Binding site [2, 10]: Distal
4 | CC1CC(C(=O)O)CN(C(=O)CSc2ccc(O)cc2)C1 (centres unmarked) [AVI-334] | – | – | – | – | – | – | – | – | – | – | – | Average % competition [1, 12]: 25%; PanDDA run, DMSO background map: 1-BDC ([2]; event 1): 0.12; PanDDA run, DMSO background map: 1-BDC [2, 6]: 0.07; Pandda run, overall: Hit [2, 7]: TRUE; Pandda run, overall: Modeling comment [2, 7]: Weak density, not modeled; PanDDA run, DMSO background map: Hit [2, 8]: TRUE
5 | O=C1CCc2cc(C(=O)N3CC(C(=O)O)CCC34CCCC4)c(F)cc2N1 (centres unmarked) [AVI-338] | 23% | 0.07 | 1 | – | 1.5 | – | – | – | – | – | – | Hill slope [1, 11]: 1.5; inhibition at 200 µM [1, 3]: 23%; Occupancy difference (refined_occupancy - 2*(1-BDC)) [2]: 0; Refined ligand occupancy (%) [2]: 14%; X-ray crystal structure [2, 5]: TRUE; PanDDA run, DMSO background map: Hit [2, 15]: TRUE; PanDDA run, DMSO background map: Modeled [2, 15]: TRUE; PanDDA run, DMSO background map: 1-BDC ([2]; crystal soak concentration 20 mM, event 1): 0.07; Pandda run, overall: Hit [2, 16]: TRUE; Pandda run, overall: Modeled [2, 16]: TRUE; 2*(1-BDC) (%) ([2]; occupancy estimate from PanDDA BDC): 14%; Binding site [2, 10]: Adenosine
6 | OC[C@@H]1C[C@H](O)CN1c1ncnc2[nH]ccc12 [AVI-610] | 56% | 0.21 | 1 | 42% | 1.2 | – | – | – | – | – | – | inhibition at 200 µM [1, 17]: 56%; SARS CoV-2 macrodomain HTRF assay: Hillslope [1]: 1.2; Pandda run, overall: Modeled [2, 18]: TRUE; Pandda run, overall: Hit [2, 19]: TRUE; X-ray crystallography: Binding site [2]: Adenosine; PanDDA run, DMSO background map: 1-BDC ([2]; soak concentration 10 mM): 0.34 and 0.31 and 0.21 and 0.26; PanDDA run, DMSO background map: Hit ([2]; soak concentration 10 mM): TRUE
7 | O[C@@H]1COC[C@H]1Nc1ncnc2[nH]ccc12 [AVI-1443] | – | – | – | – | – | – | – | – | – | – | – | IC50 [1, 20]: > 1000 µM; Pandda run, overall: Modeling comment ([2]; crystal soak, soak concentration 5 mM): Weak density, not modeled; Pandda run, overall: Hit ([2]; crystal soak, soak concentration 5 mM, TRUE = ligand hit): TRUE; PanDDA run, DMSO background map: 1-BDC ([2]; soak concentration 5 mM): 0.05 and 0.04; PanDDA run, DMSO background map: Hit ([2]; soak concentration 5 mM): TRUE
8 | O[C@H]1COC[C@@H]1Nc1ncnc2[nH]ccc12 [AVI-1444, (3R,4S)-4-((7H-pyrrolo[2,3-d]pyrimidin-4-yl)amino)tetrahydrofuran-3-ol] | – | 0.08 | 1 | 16% | – | TRUE | Adenosine | – | – | – | – | IC50 [1, 20]: > 1000 µM; Pandda run, overall: Modeled [2, 18]: TRUE; Pandda run, overall: Hit [2, 19]: TRUE; PanDDA run, DMSO background map: 1-BDC ([2]; soak concentration 10 mM): 0.08 and 0.11; PanDDA run, DMSO background map: Hit ([2]; soak concentration 10 mM): TRUE
9 | OCC(Nc1ncnc2[nH]ccc12)C1CC1 (centres unmarked) [AVI-3651] | 85% | 0.18 | 1 | 36% | 1.2 | TRUE | Adenosine | TRUE | TRUE | 0.18 | TRUE | Hill slope [1, 23]: 1.2; inhibition at 200 µM [1, 24]: 85%
10 | O[C@H]1CC[C@@H]2CCN(c3ncnc4[nH]ccc34)[C@@H]21 [AVI-3664] | 93% | 0.16 | 1 | 32% | 1.2 | – | – | TRUE | TRUE | 0.16 | TRUE | inhibition at 200 µM [1, 17]: 93%; SARS CoV-2 macrodomain HTRF assay: Hillslope [1]: 1.2; X-ray crystallography: Binding site [2]: Adenosine
11 | CCC(O)[C@H]1CCCN1c1ncnc2[nH]ccc12 (some centres unmarked) [AVI-3666] | 87% | 0.3 | 1 | 60% | 1.3 | – | – | TRUE | TRUE | 0.3 | TRUE | inhibition at 200 µM [1, 17]: 87%; IC50 ([1]; confirmatory dose-response, best fit value of 3-4 technical replicates, Fig. S3 prints the 95% confidence interval in brackets, read-out: HTRF IC50): 46 µM; SARS CoV-2 macrodomain HTRF assay: Hillslope [1]: 1.3; Ki ([1]; dose-response, read-out: SARS CoV-2 macrodomain HTRF assay: Ki): 43 µM; X-ray crystallography: Binding site [2]: Adenosine
12 | O=C(O)C(F)(F)F.OCC1(Nc2ncnc3[nH]ccc23)CCC1 [AVI-3670] | 87% | 0.18 | 2 | 36% | 1.2 | TRUE | Adenosine | TRUE | TRUE | 0.18 | TRUE | Hill slope [1, 23]: 1.2; inhibition at 200 µM [1, 24]: 87%
13 | CN(C)CC(CO)Nc1ncnc2[nH]ccc12 (centres unmarked) [AVI-3671] | – | 0.17 | 1 | 34% | – | TRUE | Adenosine | TRUE | TRUE | 0.17 | TRUE | % competition in HTRF assay [1, 26]: neither had detectable binding
14 | OCC(CN1CCCCC1)Nc1ncnc2[nH]ccc12 (centres unmarked) [AVI-3677] | – | 0.21 | 1 | 42% | – | TRUE | Adenosine | TRUE | TRUE | 0.21 | TRUE | % competition in HTRF assay [1, 26]: neither had detectable binding

From paper doi:10.1101/2024.08.25.609621 (bioRxiv, 2024)
